Read-outs that look alike come from different tables or passages of the source.
Legend:
[1] = tested on: rats with thrombocytopenia caused by carboplatin; test: Platelet count of rats with thrombocytopenia caused by carboplatin, different prophylactic administration time; assay type: in vivo, rat
[2] = Organ index of rats suffering thrombopenia induced by carboplatin; assay type: in vivo, Wistar rats
Experimental: 81 rats are prepared and randomly divided into eight groups: • blank control group, • high-dose group A (4 mg/kg, intraperitoneal injection, non modeling), • model group (40 mg/kg, tail vein injection), • interleukin-11 group (260 μg/kg, subcutaneous injection), • high dose group B (4 mg/kg, intraperitoneal injection, modeling), • high dose group (4 mg/kg, intraperitoneal injection), • middle dose group (1 mg/kg, intraperitoneal injection), and • low dose group (0.25 mg/kg, intraperitoneal injection),
Thereafter, all animals, except for those of blank group and high-dose group A, are individually injected with carboplatin (40 mg/kg) for modeling, and followed by successive administration for 15 days. During these 15 days, the rats of high-dose group A and high dose group B are stopped from administration, and taken blood from the tail on 5th day, 10th day and 15th day after the modeling respectively for detecting hematological indices. After 15th day of modeling, carboplatin (40 mg/kg) is injected again for a second modeling, and all the groups take successive administration according to the foregoing method, once a day for successive 10 days. Before each hematological indices detection, animals are weighed respectively. Taking the tails' blood of rats on 5th day after the second injection of carboplatin for detecting hematological indices, and taking the tails' blood of rats on 10th day after the second injection of carboplatin for detecting the indices of hematology, reticulocytes and coagulation; and weighing animals and killing them; and weighing liver, thymus, spleen and adrenal gland taken from the dead rats, and calculating out viscera indices; further taking out marrow for doing pathological examination.

ITP model mice [3] = assay type: in vivo, BALB/C mice; conditions: 14 days
Source text: (§1) Health BALB/C mice (body weight 18˜22 g) are randomly divided into six groups with 12 mice for each group:
Blank group, Model group, Prednisone Acetate Group, Dencichine (high dose, middle dose, and low dose) groups.
Modeling method: blood was taken from orbital vein of BALB/C Mice, followed by EDTA-Na2 Anticoagulation, and then platelets are separated and washed. The prepared platelet suspension solution was mixed uniformly with equal amount of complete Freund's adjuvant and incomplete Freund's adjuvant respectively. In the first week, antigen containing complete Freund's adjuvant is subcutaneously injected into hind paw, back and groin of the guinea pig. Injections are done for 4 times in total, with 5 spots for each injection and 100 μl for each spot. In the 6th week, non-anticoagulated whole blood was taken from the guinea pigs, and was centrifuged for 10 min under 3000 r/min to produce a supernate, which is the anti-mouse platelet serum (GP-APS) of the guinea pigs. The supernate was placed in a water bath (56° C.) for 30 min for complement inactivation, and then the inactivated supernate was diluted with normal saline, followed by test of antibody titers by agar diffusion method, and finally was stored in a refrigerator at −20° C. for later use.
(§2) Except the normal group, the mice of the remain five groups are injected with anti-mouse platelet serum (APS) of the guinea pig with a dose of 100 μl/20 g body weight, via intraperitoneal injection, on the 1st, 3rd, 5th, 7th, 9th, 11th and 13th day of the experiment.
The mice of each group are given intragastric administration from the first day. […] The mice of the prednisone acetate group are given intragastric administration of suspension of prednisone acetate at 5 mg/(kg·d). The mice of other groups are given intragastric administration of same volumetric of normal saline at 0.2 ml/20 g body weight. Intragastric administration for once each day, and continuous administration for 14 days.
Observation of the Subcutaneous Purpura:
Class I, minor bleeding are found at injection sites, and hemorrhagic spots are interspersed at other sites;
Class II, overt bleeding are found at injection sites, and ecchymosis and petechiae are found at other sites;

ITP model mice [4] = assay type: in vivo, BALB/C mice
Experimental: as §1, §2
The mice of each group are given intragastric administration from the first day. The mice of the dencichine high dose, middle-dose and low dose groups are given intragastric administration at […] respectively. The mice of the prednisone acetate group are given intragastric administration of suspension of prednisone acetate at 5 mg/(kg·d). The mice of other groups are given intragastric administration of same volumetric of normal saline at 0.2 ml/20 g body weight. Intragastric administration for once each day, and continuous administration for 14 days.
20 μl Blood was collected from orbital veins of each mouse of each group before Modeling and on 14th test day respectively, and dropped into anticoagulative tubes, then platelet count was detected by an automated blood analyzers.

female mouse = conditions: cited from earlier work
[5] = high dose group A, 4 mg/kg i.p., non modeling
[6] = high dose group B, 4 mg/kg i.p., prophylactic, modeling
[7] = low dose group, 0.25 mg/kg i.p.
[8] = middle dose group, 1 mg/kg i.p.
[9] = high dose group (6 mg/kg per Table 8) intragastric
[10] = low dose group (1.5 mg/kg per Table 8) intragastric
[11] = middle dose group (3 mg/kg) intragastric

N[C@@H](CNC(=O)C(=O)O)C(=O)O [Dencichine, β-N-oxalyl-L-α, β-diaminopropionic acid]
platelet count compared with that of model group ([1]; prophylactic administration for 3 days): no significant difference
platelet count ([1]; prophylactic administration for 3 days, after prophylactic administration): 656.3 ± 67.35 ×10^9/L
platelet count ([1]; prophylactic administration for 3 days, initial value): 717.5 ± 276.94 ×10^9/L
platelet count ([1]; prophylactic administration for 3 days, injection of carboplatin for 10 days): 110.2 ± 40.43 ×10^9/L
platelet count compared with that of model group ([1]; prophylactic administration for 5 days and 7 days): increase the platelet count
platelet count ([1]; prophylactic administration for 5 days, after prophylactic administration): 773.2 ± 142.02 ×10^9/L
platelet count ([1]; prophylactic administration for 5 days, initial value): 736.2 ± 182.37 ×10^9/L
platelet count ([1]; prophylactic administration for 5 days, injection of carboplatin for 10 days): 176.2 ± 28.34 ×10^9/L
platelet count ([1]; prophylactic administration for 7 days, after prophylactic administration): 772.8 ± 70.63 ×10^9/L
platelet count ([1]; prophylactic administration for 7 days, initial value): 743.7 ± 226.92 ×10^9/L
platelet count ([1]; prophylactic administration for 7 days, injection of carboplatin for 10 days): 166.2 ± 18.20 ×10^9/L
organ index, Adrenal gland [2, 5]: 0.03 ± 0.004 g/100 g body weight
organ index, Liver [2, 5]: 3.33 ± 0.22 g/100 g body weight
organ index, Spleen [2, 5]: 0.28 ± 0.05 g/100 g body weight
organ index, Thymus gland [2, 5]: 0.18 ± 0.08 g/100 g body weight
organ index, Adrenal gland [2, 6]: 0.03 ± 0.01 g/100 g body weight
organ index, Liver [2, 6]: 3.70 ± 0.31 g/100 g body weight
organ index, Spleen [2, 6]: 0.36 ± 0.10 g/100 g body weight
organ index, Thymus gland [2, 6]: 0.10 ± 0.03 g/100 g body weight
organ index, Adrenal gland ([2]; high dose group, 4 mg/kg i.p.): 0.03 ± 0.004 g/100 g body weight
organ index, Liver ([2]; high dose group, 4 mg/kg i.p.): 3.61 ± 0.46 g/100 g body weight
organ index, Spleen ([2]; high dose group, 4 mg/kg i.p.): 0.32 ± 0.11 g/100 g body weight
organ index, Thymus gland ([2]; high dose group, 4 mg/kg i.p.): 0.11 ± 0.02 g/100 g body weight
organ index, Adrenal gland [2, 7]: 0.03 ± 0.004 g/100 g body weight
organ index, Liver [2, 7]: 3.71 ± 0.21 g/100 g body weight
organ index, Spleen [2, 7]: 0.35 ± 0.06 g/100 g body weight
organ index, Thymus gland [2, 7]: 0.11 ± 0.02 g/100 g body weight
organ index, Adrenal gland [2, 8]: 0.03 ± 0.01 g/100 g body weight
organ index, Liver [2, 8]: 3.50 ± 0.52 g/100 g body weight
organ index, Spleen [2, 8]: 0.32 ± 0.10 g/100 g body weight
organ index, Thymus gland [2, 8]: 0.09 ± 0.04 g/100 g body weight
Subcutaneous purpura, bleeding degree + (ITP model mice [3]; [9]): 6 number of mice
Subcutaneous purpura, bleeding degree ++ (ITP model mice [3]; [9]): 2 number of mice
Subcutaneous purpura, bleeding degree +++ (ITP model mice [3]; [9]): 0 number of mice
Subcutaneous purpura, bleeding degree − (ITP model mice [3]; [9]): 0 number of mice
Subcutaneous purpura, bleeding degree + (ITP model mice [3]; [10]): 4 number of mice
Subcutaneous purpura, bleeding degree ++ (ITP model mice [3]; [10]): 4 number of mice
Subcutaneous purpura, bleeding degree +++ (ITP model mice [3]; [10]): 0 number of mice
Subcutaneous purpura, bleeding degree − (ITP model mice [3]; [10]): 0 number of mice
Subcutaneous purpura, bleeding degree + (ITP model mice [3]; [11]): 5 number of mice
Subcutaneous purpura, bleeding degree ++ (ITP model mice [3]; [11]): 3 number of mice
Subcutaneous purpura, bleeding degree +++ (ITP model mice [3]; [11]): 0 number of mice
Subcutaneous purpura, bleeding degree − (ITP model mice [3]; [11]): 0 number of mice
platelet count (ITP model mice [4]; high dose 6 mg/kg intragastric, Before Modeling): 751.4 ± 114.3 ×10^9/L
platelet count (ITP model mice [4]; high dose 6 mg/kg intragastric, Day 14): 542.1 ± 95.4 ×10^9/L
platelet count (ITP model mice [4]; low dose 1.5 mg/kg intragastric, Before Modeling): 745.1 ± 139.6 ×10^9/L
platelet count (ITP model mice [4]; low dose 1.5 mg/kg intragastric, Day 14): 428.2 ± 75.1 ×10^9/L
platelet count (ITP model mice [4]; middle dose 3 mg/kg intragastric, Before Modeling): 749.2 ± 147.5 ×10^9/L
platelet count (ITP model mice [4]; middle dose 3 mg/kg intragastric, Day 14): 484.8 ± 78.4 ×10^9/L
increase of the platelet count (female mouse; 1 mg in 0.5 ml Ringer-Locke solution, injected into abdominal cavity of a female mouse): 30%
effect on the hemostasis and increase of platelet count (female mouse; Zhao Guoqiang et al., 1984): significant effect

— US9526713B2, “Use of dencichine in preparation of drug for treating thrombocytopenia” (KUNMING SHENGHUO PHARMACEUTICAL (GROUP) CO., LTD., priority 2013, dated 2016)
